According to patent US20090093469A1, “Phenylaminopropanol Derivatives and Methods of Their Use” (WYETH, priority 2004, published 2009):
Structures can show the parent of a compound that is named as a salt.

Biological target: T1, hNET (Homo sapiens, UniProt P23975)
T1 construct: expressed in transfected cells
Experiment: Norepinephrine (NE) uptake assay in MDCK-Net6 cells stably transfected with human hNET
Type: cell-based
Conditions: MDCK-Net6, read-out: % Inhibition @ 1 μM (hNET)
Procedure: Cells were plated at 300,000/T75 flask and cells were split twice weekly. […] Cells were plated at 250,000 cells/T75 flask and split twice weekly.
On day 1, cells were plated at 3,000 cells/well in growth medium and maintained in a cell incubator (37° C., 5% CO2). On day 2, growth medium was replaced with 200 μl of assay buffer (25 mM HEPES; 120 mM NaCl; 5 mM KCl; 2.5 mM CaCl2; 1.2 mM MgSO4; 2 mg/ml glucose (pH 7.4, 37° C.)) containing 0.2 mg/ml ascorbic acid and 10 μM pargyline. Plates containing cells with 200 μl of assay buffer were equilibrated for 10 minutes at 37° C. prior to addition of compounds. A stock solution of desipramine was prepared in DMSO (10 mM) and delivered to triplicate wells containing cells for a final test concentration of 1 μM. Data from these wells were used to define non-specific NE uptake (minimum NE uptake). Test compounds were prepared in DMSO (10 mM) and diluted in assay buffer according to test range (1 to 10,000 nM). Twenty-five microliters of assay buffer (maximum NE uptake) or test compound were added directly to triplicate wells containing cells in 200 μl of assay buffer. The cells in assay buffer with test compounds were incubated for 20 minutes at 37° C. To initiate the NE uptake, [^3H]NE diluted in assay buffer (120 nM final assay concentration) was delivered in 25 μl aliquots to each well and the plates were incubated for 5 minutes (37° C.). The reaction was terminated by decanting the supernatant from the plate. The plates containing cells were washed twice with 200 μl assay buffer (37° C.) to remove free radioligand. The plates were then inverted, left to dry for 2 minutes, then reinverted and air-dried for an additional 10 minutes. The cells were lysed in 25 μl of 0.25 N NaOH solution (4° C.), placed on a shake table and vigorously shaken for 5 minutes. After cell lysis, 75 μl of scintillation cocktail was added to each well and the plates were sealed with film tape. The plates were returned to the shake table and vigorously shaken for a minimum of 10 minutes to ensure adequate partitioning of organic and aqueous solutions. The plates were counted in a Wallac Microbeta counter (PerkinElmer) to collect the raw cpm data.
For each experiment, a data stream of cpm values collected from the Wallac Microbeta counter was downloaded to a Microsoft Excel statistical application program. Calculations of EC50 values were made using the transformed-both-sides logistic dose response program written by Wyeth Biometrics Department.

T1 sequence (P23975 whole entry): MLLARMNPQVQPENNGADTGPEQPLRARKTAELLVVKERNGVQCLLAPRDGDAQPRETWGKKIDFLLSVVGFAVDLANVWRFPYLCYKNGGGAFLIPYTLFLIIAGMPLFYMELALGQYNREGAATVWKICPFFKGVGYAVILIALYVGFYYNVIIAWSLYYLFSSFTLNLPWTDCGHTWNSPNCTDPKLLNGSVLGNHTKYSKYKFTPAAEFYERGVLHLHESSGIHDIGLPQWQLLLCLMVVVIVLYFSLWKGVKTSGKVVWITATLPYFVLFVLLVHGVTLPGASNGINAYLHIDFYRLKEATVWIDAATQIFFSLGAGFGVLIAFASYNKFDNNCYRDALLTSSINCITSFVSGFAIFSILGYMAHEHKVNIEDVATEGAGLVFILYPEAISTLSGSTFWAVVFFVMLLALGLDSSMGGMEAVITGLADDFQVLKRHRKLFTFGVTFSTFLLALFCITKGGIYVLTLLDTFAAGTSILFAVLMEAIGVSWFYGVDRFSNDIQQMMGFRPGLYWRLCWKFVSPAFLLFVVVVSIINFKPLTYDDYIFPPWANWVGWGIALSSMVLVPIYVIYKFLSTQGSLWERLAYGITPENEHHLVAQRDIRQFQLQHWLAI

| Compound | inhibition at 1 µM [%] |
| --- | --- |
| CNC[C@@H](O)[C@H](c1cccc(F)c1)n1ccc2cc(F)ccc21 [Example 85, (1S,2R)-1-(5-fluoro-1H-indol-1-yl)-1-(3-fluorophenyl)-3-(methyl-amino)propan-2-ol hydrochloride] | 97.4 |
| CNC[C@@H](O)[C@H](c1ccc(Cl)cc1)n1ccc2ccccc21 [Example 34, (1S,2R)-1-(4-chlorophenyl)-1-(1H-indol-1-yl)-3-(methylamino)propan-2-ol hydrochloride] | 78.4 |
| CNC[C@@H](O)[C@H](c1cccc(F)c1)n1ccc2ccc(Cl)cc21 [Example 151, (1S,2R)-1-(6-chloro-1H-indol-1-yl)-1-(3-fluorophenyl)-3-(methylamino)propan-2-ol hydrochloride] | 94.3 |
| CCn1c(=O)n([C@@H](c2ccccc2)[C@H](O)CNC)c2cc(F)ccc21 [Example 206, 1-Ethyl-5-fluoro-3-[(1S,2R)-2-hydroxy-3-(methylamino)-1-phenylpropyl]-1,3-dihydro-2H-benzimidazol-2-one hydrochloride] | 96.9 |
| CNC[C@@H](O)[C@H](c1ccccc1)n1ccc2cc(OC)ccc21 [Example 76, (1S,2R)-1-(5-methoxy-1H-indol-1-yl)-3-(methylamino)-1-phenylpropan-2-ol hydrochloride] | 75.2 |
| CNC[C@@H](O)[C@H](c1cccc(F)c1)n1ccc2c(Cl)cccc21 [Example 150, (1S,2R)-1-(4-chloro-1H-indol-1-yl)-1-(3-fluorophenyl)-3-(methylamino)propan-2-ol hydrochloride] | 98.3 |
| CCNC[C@H](O)[C@@H](c1ccccc1)n1ccc2ccccc21 (racemic) [Example 5, (1RS,2SR)-3-(ethylamino)-1-(1H-indol-1-yl)-1-phenylpropan-2-ol hydrochloride] | 58.1 |
| CNC[C@@H](O)[C@H](c1ccccc1)n1c(=O)n(C2CCCC2)c2ccccc21 [Example 202, 1-Cyclopentyl-3-[(1S,2R)-2-hydroxy-3-(methylamino)-1-phenylpropyl]-1,3-dihydro-2H-benzimidazol-2-one hydrochloride] | 92.7 |

Same assay, conditions: hydrochloride, 1 µM

| Compound | % Inhibition @ 1 μM (hNET) [%] |
| --- | --- |
| CNC[C@H](O)[C@H](c1ccccc1)n1ccc2ccccc21 (stereo in doubt) [Example 30, (1S,2S)-1-(1H-indol-1-yl)-3-(methylamino)-1-phenylpropan-2-ol hydrochloride] | 79.7 |

Same assay, conditions: test compound 1 μM; [3H]NE uptake, MDCK-Net6 cells; read-out: % Inhibition @ 1 μM (hNET)

| inhibition at 1 µM [%] | Compound |
| --- | --- |
| 12.3 | O[C@H](CN1CCOCC1)[C@H](c1cccc(F)c1)n1ccc2ccccc21 [Example 56, (1S,2R)-1-(3-fluorophenyl)-1-(1H-indol-1-yl)-3-morpholin-4-ylpropan-2-ol hydrochloride] |
| 91 | CNC[C@@H](O)[C@H](c1ccccc1)N1C(=O)C(C)(C)c2ccc(F)cc21 [Example 195, 6-fluoro-1-[(1S,2R)-2-hydroxy-3-(methylamino)-1-phenylpropyl]-3,3-dimethyl-1,3-dihydro-2H-indol-2-one hydrochloride] |
| 45.6 | CNC[C@@H](O)[C@H](c1ccccc1)n1ccc2c(C#N)cccc21 [Example 128, 1-[(1S,2R)-2-hydroxy-3-(methylamino)-1-phenylpropyl]-1H-indole-4-carbonitrile hydrochloride] |
| 98.3 | CNC[C@@H](O)[C@H](c1cccc(F)c1)n1cc(-c2ccc(C(C)(C)C)cc2)c2ccccc21 [Example 171, (1S,2R)-1-[3-(4-tert-butylphenyl)-1H-indol-1-yl]-1-(3-fluorophenyl)-3-(methylamino)propan-2-ol hydrochloride] |
| 70.9 | CNC[C@@H](O)[C@H](c1ccccc1)n1ccc2c(OC)cccc21 [Example 78, (1S,2R)-1-(4-methoxy-1H-indol-1-yl)-3-(methylamino)-1-phenyl propan-2-ol hydrochloride] |
| 96.6 | CNC[C@@H](O)[C@H](c1ccccc1)n1ccc2ccc(F)cc21 [Example 186, (1S,2R)-1-(6-fluoro-1H-indol-1-yl)-3-(methylamino)-1-phenylpropan-2-ol hydrochloride] |
| 98.6 | CNC[C@@H](O)[C@H](c1cccc(F)c1)N1C(=O)C(C)(C)c2cccc(F)c21 [Example 101, 7-fluoro-1-[(1S,2R)-1-(3-fluorophenyl)-2-hydroxy-3-(methylamino)propyl]-3,3-dimethyl-1,3-dihydro-2H-indol-2-one hydrochloride] |
| 66 | CNC[C@@H](O)[C@H](c1ccccc1)n1ccc2ccc(OC)cc21 [Example 79, (1S,2R)-1-(6-methoxy-1H-indol-1-yl)-3-(methylamino)-1-phenyl propan-2-ol hydrochloride] |
| 63.9 | CNC[C@@H](O)[C@](C)(c1ccccc1)n1ccc2ccccc21 [Example 191, (2R,3S)-3-(1H-indol-1-yl)-1-(methylamino)-3-phenylbutan-2-ol hydrochloride] |
| 94.2 | CNC[C@@H](O)[C@H](c1ccccc1)N1C(=O)C(C)(C)c2ccccc21 [Example 100, 1-[(1S,2R)-2-hydroxy-3-(methylamino)-1-phenylpropyl]-3,3-dimethyl-1,3-dihydro-2H-indol-2-one hydrochloride] |
| 67.9 | Cc1cn([C@@H](c2ccccc2)[C@H](O)CN)c2ccc(F)cc12 (racemic) [Example 118, (1SR,2RS)-3-amino-1-(5-fluoro-3-methyl-1H-indol-1-yl)-1-phenylpropan-2-ol hydrochloride] |
| 99.9 | CNC[C@@H](O)[C@H](c1cccc(F)c1)n1cc(-c2ccccc2Cl)c2ccccc21 [Example 214, (1S,2R)-1-[3-(2-chlorophenyl)-1H-indol-1-yl]-1-(3-fluorophenyl)-3-(methylamino)propan-2-ol hydrochloride] |
| 96.3 | CNC[C@@H](O)[C@H](c1ccccc1)n1cc(C)c2cc(Cl)ccc21 [Example 119, (1S,2R)-1-(5-chloro-3-methyl-1H-indol-1-yl)-3-(methylamino)-1-phenylpropan-2-ol hydrochloride] |
| 99.7 | CNC[C@@H](O)[C@H](c1cccc(F)c1)n1cc(-c2ccccc2C)c2ccccc21 [Example 62, (1S,2R)-1-(3-fluorophenyl)-3-(methylamino)-1-[3-(2-methylphenyl)-1H-indol-1-yl]propan-2-ol] |
| 8.5 | O[C@@H](CN1CCCCC1)[C@@H](c1ccccc1)n1ccc2cc(Cl)ccc21 (racemic) [Example 15, (1RS,2SR)-1-(5-chloro-1H-indol-1-yl)-1-phenyl-3-piperidin-1-ylpropan-2-ol hydrochloride] |
| 57.6 | CNC[C@@H](O)[C@H](c1ccc(OC(F)(F)F)cc1)n1ccc2ccccc21 (single isomer, unassigned) [Example 40, hydrochloride] |
| 23.9 | CNC[C@@H](O)[C@H](c1cccc(F)c1)n1cc(-c2ccc(Cl)c(Cl)c2)c2ccccc21 [Example 115, (1S,2R)-1-[3-(3,4-dichlorophenyl)-1H-indol-1-yl]-1-(3-fluorophenyl)-3-(methylamino)propan-2-ol hydrochloride] |
| 44.9 | CNC[C@@H](O)[C@H](c1ccccc1)n1c(C)cc2ccccc21 (racemic) [Example 71, (1RS,2SR)-3-(methylamino)-1-(2-methyl-1H-indol-1-yl)-1-phenylpropan-2-ol hydrochloride] |
| 97.9 | CNC[C@@H](O)[C@H](c1cccc(C(F)(F)F)c1)N1CCc2ccccc21 [Example 138, (1S,2R)-1-(2,3-dihydro-1H-indol-1-yl)-3-(methylamino)-1-[3-(trifluoromethyl)phenyl]propan-2-ol hydrochloride] |
| 77.7 | CNC[C@@H](O)[C@H](c1ccc(OC)cc1)n1ccc2ccccc21 (racemic) [Example 70, (1SR,2RS)-1-(1H-indol-1-yl)-1-(4-methoxyphenyl)-3-(methylamino)propan-2-ol hydrochloride] |
| 63.1 | CNC[C@@H](O)[C@H](c1cccc(F)c1)n1ccc2c(C#N)cccc21 [Example 131, 1-[(1S,2R)-1-(3-fluorophenyl)-2-hydroxy-3-(methylamino)propyl]-1H-indole-4-carbonitrile hydrochloride] |
| 94.3 | CNC[C@@H](O)[C@H](c1cccc(OC(F)(F)F)c1)n1ccc2ccccc21 [Example 35, (1S,2R)-1-(1H-indol-1-yl)-3-(methylamino)-1-[3-(trifluoromethoxy)phenyl]propan-2-ol hydrochloride] |
